For 16 molecules, IC50 results are on record in patent US8895571B2, “Isoindolinone and pyrrolopyridinone derivatives as Akt inhibitors” (Incyte Corporation, priority 2011, dated 2014).

In assay [1] the test system is LNCaP cells (human prostate tumor cell line). Put plainly: Akt LNCaP proliferation assay (MTS). The class given is cell-based. The conditions noted are these: 48 hours. The method, boiled down: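 Cells plated at 10,000/well in RPMI with 2% FBS overnight at 37° C., 5% CO2, then exposed to compound at 1000 nM to 0.5 nM (3-fold dilutions) for 48 hours. Viable cells measured by MTS colorimetric read-out after 2 hours; IC50 taken as concentration giving 50% inhibition of total proliferation.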

In a further assay the target is T1, Full length Akt3 (Homo sapiens, UniProt Q9Y243).
T1 construct: Full length Akt1 (cat #P2999), Akt2 (cat #PV3184), Akt3 (cat #PV3185); purchased PerkinElmer PV3185
Description: In vitro Akt kinase enzymatic assay (HTRF), Akt3. The conditions noted are these: 0.6 nM Akt3, substrate solution with 5 mM ATP, 25° C. 1 hr. The class given is biochemical. The method, boiled down:
(§1)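 Full-length enzyme (0.4 nM Akt1 or 0.6 nM Akt2/Akt3 in the enzyme solution) was combined with a substrate solution of 0.1 μM ULight-Crosstide plus 5 mM ATP in pH 7.8 HEPES/MgCl2/DTT/Tween20 buffer and reacted 1 hr at 25° C. The EDTA stop contained Eu anti-phospho-Crosstide; IC50 was fitted from 11-point HTRF inhibition curves.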
In general terms: TR-FRET usually uses a lanthanide donor and a delayed reading to cut background.

The target of a further assay is T2, Full length Akt1 (Homo sapiens, UniProt P31749).
T2 construct: Full length Akt1 (cat #P2999); purchased PerkinElmer P2999
Put plainly: In vitro Akt kinase enzymatic assay (HTRF), Akt1. The class given is biochemical. The conditions noted are these: 0.4 nM Akt1, substrate solution with 5 mM ATP, 25° C. 1 hr. The method, boiled down:
as §1

The next assay addresses T3, Full length Akt2 (Homo sapiens, UniProt P31751).
T3 construct: Full length Akt1 (cat #P2999), Akt2 (cat #PV3184); purchased PerkinElmer PV3184
Description: In vitro Akt kinase enzymatic assay (HTRF), Akt2. In kind it is biochemical. The conditions noted are these: 0.6 nM Akt2, substrate solution with 5 mM ATP, 25° C. 1 hr. The method, boiled down: as §1

The target in the next assay is T4, Full length PKA (Homo sapiens, UniProt P17612).
T4 construct: Full length PKA (cat #P2912); purchased Invitrogen P2912
Put plainly: PKA in vitro enzymatic assay (HTRF). As to conditions: 0.035 nM enzyme solution, substrate solution with 5 mM ATP, 25° C. 1 hr. In kind it is biochemical. The method, boiled down: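 Reaction buffer was 50 mM HEPES pH 7.8, 10 mM MgCl2, 5 mM DTT and 0.005% Tween20. Enzyme solution was 0.035 nM, and substrate solution was 0.1 μM fluorescein-CREBtide with 5 mM ATP. After 1 h at 25°C, EDTA plus Tb anti-pS133 antibody was added, TR-FRET was read, and IC50 was fitted from 11-point, 3-fold % inhibition curves.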

[2] abbreviates: 2% fetal bovine serum, class symbols.
Setting [3] is: given as a bound, final concentrations 1000 nM to 0.5 nM.

T2 sequence (P31749 whole entry): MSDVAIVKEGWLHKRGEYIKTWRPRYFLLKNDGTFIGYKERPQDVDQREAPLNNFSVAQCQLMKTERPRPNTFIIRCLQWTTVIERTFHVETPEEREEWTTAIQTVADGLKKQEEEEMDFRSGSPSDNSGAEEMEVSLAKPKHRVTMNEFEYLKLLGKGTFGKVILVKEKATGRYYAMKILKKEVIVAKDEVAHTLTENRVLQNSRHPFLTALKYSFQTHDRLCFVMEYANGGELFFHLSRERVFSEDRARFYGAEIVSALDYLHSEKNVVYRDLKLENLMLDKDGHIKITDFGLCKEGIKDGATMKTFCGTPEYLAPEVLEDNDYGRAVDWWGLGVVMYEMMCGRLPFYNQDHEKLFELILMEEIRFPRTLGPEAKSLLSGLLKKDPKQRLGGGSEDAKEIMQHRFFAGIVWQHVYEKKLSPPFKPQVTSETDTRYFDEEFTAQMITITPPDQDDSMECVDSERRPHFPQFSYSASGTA
T3 sequence (P31751 whole entry): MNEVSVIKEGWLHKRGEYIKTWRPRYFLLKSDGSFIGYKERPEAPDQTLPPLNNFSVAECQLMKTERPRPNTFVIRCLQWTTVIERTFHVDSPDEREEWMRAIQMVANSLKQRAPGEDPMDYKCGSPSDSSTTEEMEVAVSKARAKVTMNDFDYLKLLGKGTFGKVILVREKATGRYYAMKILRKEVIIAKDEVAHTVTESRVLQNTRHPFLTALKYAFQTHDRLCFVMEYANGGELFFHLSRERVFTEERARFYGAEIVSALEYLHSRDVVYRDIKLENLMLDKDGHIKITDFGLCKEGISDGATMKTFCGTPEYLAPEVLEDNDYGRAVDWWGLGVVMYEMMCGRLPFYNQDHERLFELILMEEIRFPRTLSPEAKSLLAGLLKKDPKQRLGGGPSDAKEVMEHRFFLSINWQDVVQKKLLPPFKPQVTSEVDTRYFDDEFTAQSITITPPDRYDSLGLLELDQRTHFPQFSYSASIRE
T1 sequence (Q9Y243 whole entry): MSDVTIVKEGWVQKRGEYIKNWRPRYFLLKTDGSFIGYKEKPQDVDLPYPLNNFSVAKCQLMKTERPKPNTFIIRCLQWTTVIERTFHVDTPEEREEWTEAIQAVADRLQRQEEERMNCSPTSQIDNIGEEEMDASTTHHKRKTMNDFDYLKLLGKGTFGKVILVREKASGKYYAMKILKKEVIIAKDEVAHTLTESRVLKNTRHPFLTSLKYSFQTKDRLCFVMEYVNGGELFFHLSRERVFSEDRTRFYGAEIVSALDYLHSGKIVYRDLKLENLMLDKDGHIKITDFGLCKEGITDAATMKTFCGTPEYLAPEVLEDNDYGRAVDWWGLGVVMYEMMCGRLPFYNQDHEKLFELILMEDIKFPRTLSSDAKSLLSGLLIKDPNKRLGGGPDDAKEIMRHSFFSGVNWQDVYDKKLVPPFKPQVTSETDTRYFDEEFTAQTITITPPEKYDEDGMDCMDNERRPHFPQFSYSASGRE

Take `Cn1nccc1-c1ccc2c(c1)CN([C@H](CN)Cc1ccsc1)C2=O` [Example 81, 2-[(1S)-2-amino-1-(3-thienylmethyl)ethyl]-5-(1-methyl-1H-pyrazol-5-yl)isoindolin-1-one]: the IC50 (in general, the concentration that gives 50% inhibition) in assay [1] (setting [2]) was under 500 nM; against Full length Akt3, under 500 nM; at Full length Akt1, under 500 nM; on Full length Akt2, under 500 nM; against Full length PKA, 500 to 5000 nM.
For `COCc1cnn(C)c1-c1ccc2c(c1)CN([C@H](CN)Cc1cccc(F)c1)C2=O` [Example 4, 2-[(1S)-2-amino-1-(3-fluorobenzyl)ethyl]-5-(4-methoxymethyl-1-methyl-1H-pyrazol-5-yl)isoindolin-1-one], the 50% inhibitory concentration (IC50) is under 500 nM in assay [1] (setting [2]); under 500 nM at Full length Akt3; under 500 nM against Full length Akt1; under 500 nM against Full length Akt2; over 5000 nM on Full length PKA.
Regarding `Cn1ncc(COCC2CC2)c1-c1ccc2c(c1)CN([C@H](CN)Cc1cccc(F)c1)C2=O` [Example 9, 2-[(1S)-2-amino-1-(3-fluorobenzyl)ethyl]-5-(4-cyclopropylmethoxymethyl-1-methyl-1H-pyrazol-5-yl)isoindolin-1-one], the IC50 in assay [1] (setting [2]) was under 500 nM; on Full length Akt3 it was under 500 nM; at Full length Akt1, under 500 nM; on Full length Akt2 it was under 500 nM; against Full length PKA, over 5000 nM.
With `Cc1cnn(C)c1-c1cc2c(cn1)C(=O)N([C@H](CN)Cc1cccc(F)c1)C2` [Example 94, 2-[(1S)-2-amino-1-(3-fluorobenzyl)ethyl]-6-(4-methyl-1-methyl-1H-pyrazol-5-yl)-1,2-dihydro-3H-pyrrolo[3,4-c]pyridin-3-one], the IC50 is under 500 nM in assay [1] (setting [2]); under 500 nM against Full length Akt3; under 500 nM at Full length Akt1; under 500 nM against Full length Akt2; 500 to 5000 nM against Full length PKA.
Consider `COCc1cnn(C)c1-c1ccc2c(c1)CN([C@H](CN)CC1CCCCC1)C2=O` [Example 133, 2-[(1S)-2-amino-1-(cyclohexylmethyl)ethyl]-5-[4-(methoxymethyl)-1-methyl-1H-pyrazol-5-yl]isoindolin-1-one], for which the IC50 in assay [1] (setting [2]) is 500 to 5000 nM; against Full length Akt3 it was 500 to 5000 nM; at Full length Akt1 it was under 500 nM; on Full length Akt2, 500 to 5000 nM; on Full length PKA, over 5000 nM.
With `Cn1ncc(Cl)c1-c1ccc2c(c1)CN([C@H](CN)Cc1cc(F)cc(F)c1)C2=O` [Example 41, 2-[(1S)-2-amino-1-(3,5-difluorobenzyl)ethyl]-5-(4-chloro-1-methyl-1H-pyrazol-5-yl)isoindolin-1-one], the half-inhibitory concentration (IC50) in assay [1] (setting [2]) was under 500 nM; against Full length Akt3, under 500 nM; at Full length Akt1, under 500 nM; on Full length Akt2 it was under 500 nM; against Full length PKA, 500 to 5000 nM.
Consider `Cn1ncc(COC2CCC2)c1-c1ccc2c(c1)CN([C@H](CN)Cc1cc(F)cc(F)c1)C2=O` [Example 47, 2-[(1S)-2-amino-1-(3,5-difluorobenzyl)ethyl]-5-[4-(cyclobutoxymethyl)-1-methyl-1H-pyrazol-5-yl]isoindolin-1-one], for which the IC50 is under 500 nM in assay [1] (setting [2]); under 500 nM on Full length Akt3; under 500 nM at Full length Akt1; under 500 nM against Full length Akt2; 500 to 5000 nM on Full length PKA.
Take `Cn1nccc1-c1ccc2c(c1)CN([C@H](CN)Cc1ccccc1)C2=O` [Example 55, 2-[(1S)-2-amino-1-benzyl-ethyl]-5-(1-methyl-1H-pyrazol-5-yl)isoindolin-1-one]: the half-inhibitory concentration (IC50) is under 500 nM in assay [1] (setting [2]); under 500 nM on Full length Akt3; under 500 nM at Full length Akt1; under 500 nM against Full length Akt2; over 5000 nM at Full length PKA.
In the case of `CCn1nccc1-c1ccc2c(c1)CN([C@H](CN)Cc1cc(F)cc(F)c1)C2=O` [Example 128, 2-[(1S)-2-amino-1-(3,5-difluorobenzyl)ethyl]-5-(1-ethyl-1H-pyrazol-5-yl)isoindolin-1-one], the IC50 is under 500 nM in assay [1] (setting [2]); under 500 nM at Full length Akt3; under 500 nM at Full length Akt1; under 500 nM on Full length Akt2; over 5000 nM against Full length PKA.
In the case of `CC(C)OCc1cnn(C)c1-c1ccc2c(c1)CN([C@H](CN)Cc1cccc(F)c1)C2=O` [Example 6, 2-[(1S)-2-amino-1-(3-fluorobenzyl)ethyl]-5-[4-(2-propoxymethyl)-1-methyl-1H-pyrazol-5-yl]isoindolin-1-one], the concentration for half-maximal inhibition (IC50) in assay [1] (setting [2]) is under 500 nM; against Full length Akt3, under 500 nM; against Full length Akt1 it was under 500 nM; against Full length Akt2, under 500 nM; on Full length PKA, over 5000 nM.
For the molecule `Cn1ncc(Cl)c1-c1ccc2c(c1)CN([C@H](CN)Cc1ccccc1)C2=O` [Example 56, 2-[(1S)-2-amino-1-benzyl-ethyl]-5-(4-chloro-1-methyl-1H-pyrazol-5-yl)isoindolin-1-one], the IC50 was under 500 nM in assay [1] (setting [2]); under 500 nM on Full length Akt3; under 500 nM on Full length Akt1; under 500 nM at Full length Akt2; 500 to 5000 nM on Full length PKA.
Turning to `Cn1nccc1-c1ccc2c(c1)CN([C@H](CN)Cc1cccc(F)c1)C2=O` [Example 1, 2-[(1S)-2-Amino-1-(3-fluorobenzyl)ethyl]-5-(1-methyl-1H-pyrazol-5-yl)isoindolin-1-one], the IC50 in assay [1] (setting [2]) is under 500 nM; against Full length Akt3, under 500 nM; at Full length Akt1, under 500 nM; on Full length Akt2, under 500 nM; against Full length PKA, 500 to 5000 nM.
`Cn1nccc1-c1cc2c(cn1)C(=O)N([C@H](CN)Cc1cccc(F)c1)C2` [Example 93, 2-[(1S)-2-amino-1-(3-fluorobenzyl)ethyl]-6-(1-methyl-1H-pyrazol-5-yl)-1,2-dihydro-3H-pyrrolo[3,4-c]pyridin-3-one]: the 50% inhibitory concentration (IC50) is under 500 nM in assay [1] (setting [2]); under 500 nM against Full length Akt3; under 500 nM against Full length Akt1; under 500 nM against Full length Akt2; 500 to 5000 nM at Full length PKA.
In the case of `Cn1ncc(C#N)c1-c1ccc2c(c1)CN([C@H](CN)Cc1cc(F)cc(F)c1)C2=O` [Example 53, 2-[(1S)-2-amino-1-(3,5-difluorobenzyl)ethyl]-5-(4-cyano-1-methyl-1H-pyrazol-5-yl)isoindolin-1-one], the IC50 in assay [1] (setting [2]) was under 500 nM; against Full length Akt3 it was under 500 nM; against Full length Akt1 it was under 500 nM; at Full length Akt2, under 500 nM; against Full length PKA, 500 to 5000 nM.
Consider `Cn1ncc(Cl)c1-c1ccc2c(c1)CN([C@H](CN)Cc1cccc(-c3cncnc3)c1)C2=O` [Example 74, 2-[(1S)-2-amino-1-(3-pyrimidin-5-ylbenzyl)ethyl]-5-(4-chloro-1-methyl-1H-pyrazol-5-yl)isoindolin-1-one], for which the half-inhibitory concentration (IC50) is over 1000 nM in assay [1] (setting [3]); over 5000 nM on Full length Akt3; 500 to 5000 nM at Full length Akt1; over 5000 nM at Full length Akt2; over 5000 nM at Full length PKA.
As for `Cn1ncc(Cl)c1-c1ccc2c(c1)CN([C@H](CN)Cc1cccc(-c3cccnc3)c1)C2=O` [Example 73, 2-[(1S)-2-amino-1-(3-pyridin-3-ylbenzyl)ethyl]-5-(4-chloro-1-methyl-1H-pyrazol-5-yl)isoindolin-1-one], the IC50 was over 1000 nM in assay [1] (setting [3]); 500 to 5000 nM at Full length Akt3; 500 to 5000 nM at Full length Akt1; over 5000 nM against Full length Akt2; over 5000 nM at Full length PKA.
